According to patent publication US4578397A, “Indeno(1,2-b)pyrrole derivatives” (Yoshitomi Pharmaceutical Industries, Ltd., priority 1982, dated 1986):

Key:
[1] = tested on: picrotoxin-induced lethality; test: Anti-picrotoxin effect (anti-lethal), oral; assay type: in vivo, male dd-mice; details: Mus musculus, 0.5 h, read-out: Anti-picrotoxin-lethal effect, ED50
Method: 1. Anti-picrotoxin Effect
Groups of 7-14 male dd-mice were used. Picrotoxin (5 mg/kg) was administered subcutaneously 60 minutes after the oral administration of test compound, and the 50% anti-lethal dose (ED50) was calculated from the servival rate within 30 minutes.

[2] = tested on: bicuculline-induced tonic convulsion; test: Anti-bicuculline effect (anti-tonic convulsion), oral; assay type: in vivo; details: Mus musculus, 5 min; bicuculline 0.6 mg/kg i.v. 60 min after oral test compound; protection of 50% against tonic convulsion within 5 min; male dd-mice; read-out: Anti-bicuculline-convulsive effect, ED50
Method: 2. Anti-bicuculline Effect
Groups of 4-14 male dd-mice were used. Bicuculline (0.6 mg/kg) was administered intravenously 60 minutes after the oral administration of test compound, and the ED50, the dose required to protect 50% of the animals against tonic convulsion within 5 minutes was determined.

[3] = administered peripherally; cited from earlier work

SMILES	ED50 [1]	ED50 [2]	transmission through the blood-brain barrier [3]
CN1C(=O)CC2Cc3c(Cl)cccc3C21 (centres unmarked) [B, 5-chloro-1-methyl-1,2,3,3a,4,8b-hexahydro-indeno[1,2-a]pyrrol-2-one]	36 mg/kg	68 mg/kg	
Fc1ccc2c(c1)CC1CC(=S)NC21 (centres unmarked) [C, 6-Fluoro-1,2,3,3a,4,8b-hexahydro-indeno[1,2-b]pyrrol-2-thione]	45 mg/kg	70 mg/kg	
NCCCC(=O)O [GABA, gamma-aminobutyric acid]			hard to transmit through the blood-brain barrier
O=C1CC2Cc3ccc(F)cc3C2N1 (centres unmarked) [D, 7-Fluoro-1,2,3,3a,4,8b-hexahydro-indeno[1,2-b]pyrrol-2-one]	48 mg/kg	56 mg/kg	
O=C1CC2Cc3c(Cl)cccc3C2N1 (centres unmarked) [A, 5-chloro-1,2,3,3a,4,8b-hexahydro-indeno[1,2-b]pyrrol-2-one]	18 mg/kg	75 mg/kg	
O=C1CC2Cc3ccccc3C2N1 (centres unmarked) [Compound E, 1,2,3,3a,4,8bHexahydro-indeno[1,2b]pyrrol2-one, reference compound]	> 100 mg/kg	> 100 mg/kg	
